The assay addresses T1, Interleukin-1 receptor-associated kinase 4 (Homo sapiens, UniProt Q9NWZ3).
T1 sequence (Q9NWZ3 whole entry): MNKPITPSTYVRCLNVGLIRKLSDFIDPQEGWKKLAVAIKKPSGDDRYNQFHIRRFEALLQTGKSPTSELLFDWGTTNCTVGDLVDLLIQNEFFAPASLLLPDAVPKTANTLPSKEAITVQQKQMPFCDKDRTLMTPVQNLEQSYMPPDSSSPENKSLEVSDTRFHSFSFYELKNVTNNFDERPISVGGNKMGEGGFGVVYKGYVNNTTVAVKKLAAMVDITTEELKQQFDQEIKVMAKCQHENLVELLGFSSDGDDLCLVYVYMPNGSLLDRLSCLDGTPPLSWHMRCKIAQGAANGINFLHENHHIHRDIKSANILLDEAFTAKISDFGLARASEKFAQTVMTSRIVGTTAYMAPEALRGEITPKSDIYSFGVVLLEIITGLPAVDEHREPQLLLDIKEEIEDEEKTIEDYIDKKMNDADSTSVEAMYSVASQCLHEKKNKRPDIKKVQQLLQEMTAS
Description: IRAK4 Kinase Assay: For the assay, 11 different concentrations in the range from 20 μM to 0.073 nM were prepared from a 2 mM DMSO solution of the test substance. 50 nl of the respective solution were pipetted into a black low-volume 384-well microtitre plate (Greiner Bio-One, Frickenhausen, Germany), 2 μl of a solution of IRAK4 in assay buffer [50 mM HEPES pH 7.5, 5 mM MgCl2, 1.0 mM ….

Structures are written as SMILES.

The term IC50 denotes the concentration that inhibits the measured activity by half. The molecule `COCCn1cc2cc(NC(=O)c3cccc(C(F)(F)F)n3)c(CO)cc2n1` came in with an IC50 of 136 nM.

Values taken from ChEMBL document CHEMBL5727056, “Substituted indazoles, methods for the production thereof, pharmaceutical preparations that contain said new substituted indazoles, and use of said new substituted indazoles to produce drugs” (2019).
